The test system of data set [1] is head-twitch response (HTR) in male C57BL6 mice. The experiment in a line: Mouse head twitch (HTR). Type of data set: in vivo, C57BL/6J mice. Conditions: 0.3-10 mg/kg SC, measured over 1 h. On the procedure: Data is expressed as mean+SEM. The induction of head twitches elicited by 5-HT2A receptor agonists is believed to represent a behavioural proxy of their psychedelic effects.
The effect of different doses of exemplary compounds of Formula I were evaluated on head-twitch response (HTR) as a behavior-based model of psychedelic activity.
Male, C57BL/6J mice (body weight range 20-30 g) were dosed with the appropriate dose of test article, and following a 1-minute pre-treatment time, placed in individual observation chambers. Animals were visually assessed for the incidence head twitches continuously over a 1 hr period. Head twitches were defined as a rapid jerk of the head which was not elicited by an external tactile stimulus (Corne and Pickering, Psychopharmacologia, 1967, 11(1): 65-78). Each head twitch was individually counted by a trained observer, and the data expressed as the mean+SEM of 6-10 mice per group. Mice were used in a single experiment only.

Data set [2] is described as follows: In vivo pharmacokinetics in mice. Conditions: male C57BL/6 mice. On the procedure: (§1) Male C57BL/6 mice (25-30 g) and male Sprague-Dawley rats (250-325 g) from Charles River Labs were acclimatized for a minimum of 5 days prior to dosing. Body weights were recorded on the day of dosing.
(§2) Animals dosed p.o. were deprived of food overnight and fed ˜2 h following dosing.
(§3) Formulations were administered intravenously (i.v.) via the tail vein or orally (p.o.) by gavage with disposable feeding needles.
(§4) Serial blood samples were collected via tail snip. Terminal blood samples were collected under isoflurane anesthesia by cardiac puncture.
(§5) All blood samples were transferred into K2EDTA tubes on wet ice and centrifuged within 5 min (3200×g for 5 min at 4° C.) to obtain plasma. Plasma was stored at −80° C. until analysis.
(§6) Mouse or Rat Plasma, as Applicable.
(§7) AB Sciex QTRAP 4000 or 6500 MS/MS system equipped with an LC system with a binary pump, a solvent degasser, a thermostatted column compartment and a multiplate autosampler. i. Analysis software: Phoenix® WinNonlin® 8.2 (Pharsight, Certara, Mountainview, Calif.) ii. Analysis methods: non-compartmental analysis, linear up/log down trapezoidal rule iii. PK parameters: C0, t1/2, AUC0-tlast. AUC0-∞, CL, Vss, MRT, tmax(po), Cmax(po), F, as appropriate

The nature of data set [3]: In vivo pharmacokinetics in rats. The note with it: male Sprague-Dawley rats. As to the method:
as §1, §2, §3, §4, §5, §6, §7

Broadly, the AUC(0-inf) is total exposure, with the tail of the curve extrapolated. Low values mean low exposure, high ones high exposure. With `[2H]C([2H])([2H])N(C([2H])([2H])[2H])C([2H])([2H])C([2H])([2H])c1c[nH]c2cccc(O)c12` [Compound I-45, 3-(2-(bis(methyl-d3)amino)ethyl-1,1,2,2-d4)-1H-indol-4-ol], in data set [1], the “head twitch frequency compared to vehicle control” value is “dose dependent increase in head twitch frequency”. Further, the AUC0-inf/Dose was determined as 181 ± 30.8 kg·ng·h/mL/mg in data set [2] (i.v., 1 mg/kg); 79.5 ± 12.1 kg·ng·h/mL/mg in data set [2] (p.o., 10 mg/kg); 181 ± 30.8 kg·ng·h/mL/mg in data set [3] (i.v., 0.3 mg/kg); 181 ± 14.6 kg·ng·h/mL/mg in data set [3] (p.o.); 120 ± 29.0 kg·ng·h/mL/mg in data set [3] (s.c., 0.3 mg/kg). The Cmax/Dose in data set [2] (p.o., 10 mg/kg) turned out to be 70.4 ± 12.8 kg·ng/mL/mg; in data set [3] (p.o., 3.0 mg/kg (title; dose row prints 10)), 79.2 ± 24.4 kg·ng/mL/mg; in data set [3] (s.c., 0.3 mg/kg), 101 ± 40.7 kg·ng/mL/mg. In data set [3] (rat, plasma, iv, 0.3 mg/kg), this compound yielded a total exposure AUC(0-inf) of 117 ± 11.5 ng·h/mL. Moreover, the C0 in data set [3] (rat, plasma, iv, 0.3 mg/kg) stood at 76.5 ± 7.49 ng/mL.
